# From patent US6737383B1, “Herbicidal oxadiazolidines” (priority 1999, dated 2004)
# Experiments:
# [1] = system: pigweed; assay: Test B pre/postemergence pigweed; type: in vivo, Amaranthus retroflexus
# Outline: (§1)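 Herbicidal effect was estimated by eye on a ten-point control scale after plants spent twelve to sixteen days in a greenhouse following soil or foliar treatment. Foliar sprays targeted plants at one to four leaves; all doses were formulated in a non-phytotoxic solvent with surfactant.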
# [2] = system: corn; assay: Test B pre/postemergence corn; type: in vivo, Zea mays
# Outline: as §1
# [3] = system: wild oat; assay: Test B pre/postemergence wild oat; type: in vivo, Avena fatua
# Outline: as §1
# [4] = system: soybean; assay: Test B pre/postemergence soybean; type: in vivo, Glycine max
# Outline: as §1
# [5] = system: sugar beet; assay: Test B pre/postemergence sugar beet; type: in vivo, Beta vulgaris
# Outline: as §1
# [6] = system: surinam grass; assay: Test B pre/postemergence surinam grass; type: in vivo, Brachiaria decumbens
# Outline: as §1
# [7] = system: purple nutsedge; assay: Test B pre/postemergence purple nutsedge; type: in vivo, Cyperus rotundus
# Outline: as §1
# [8] = system: rape; assay: Test B pre/postemergence rape; type: in vivo, Brassica napus
# Outline: as §1
# [9] = system: morningglory; assay: Test B pre/postemergence morningglory; type: in vivo, Ipomoea hederacea
# Outline: as §1
# [10] = system: bedstraw; assay: Test B pre/postemergence bedstraw; type: in vivo, Galium aparine
# Outline: as §1
# [11] = system: velvetleaf; assay: Test B pre/postemergence velvetleaf; type: in vivo, Abutilon theophrasti
# Outline: as §1
# [12] = system: cocklebur; assay: Test B pre/postemergence cocklebur; type: in vivo, Xanthium strumarium
# Outline: as §1
# [13] = system: blackgrass; assay: Test B pre/postemergence blackgrass; type: in vivo, Alopecurus myosuroides
# Outline: as §1
# [14] = Postemergence, Rate 125 g/ha, scale of 0 to 10 where 0 is no effect and 10 is complete control
# [15] = Preemergence, Rate 62 g/ha, scale of 0 to 10 where 0 is no effect and 10 is complete control
# [16] = Preemergence, Rate 125 g/ha, 0 is no effect, 10 is complete control
# [17] = Preemergence, Rate 250 g/ha, scale 0 to 10, 0 is no effect, 10 is complete control
# [18] = Preemergence, Rate 500 g/ha, scale 0 to 10 (0 no effect, 10 complete control)
# [19] = Rate 62 g/ha, Postemergence, scale of 0 to 10 where 0 is no effect and 10 is complete control
# [20] = Rate 250 g/ha, Postemergence, scale 0 to 10, 0 is no effect, 10 is complete control
# [21] = Rate 500 g/ha, Postemergence, scale 0 to 10
compound,measurement,setting,value
CC1CCCCC1n1c(=O)on(C(=O)N(c2ccc(F)cc2)C(C)C)c1=O (stereo not drawn) [Compound 161],Redroot pigweed plant response rating,[1]; [14],0
same,Redroot pigweed plant response rating,[1]; [15],0
same,Redroot pigweed plant response rating (0 to 10 scale),[1]; [16],0
same,Redroot pigweed plant response rating,[1]; [17],4
same,Redroot pigweed plant response rating,[1]; [18],10
same,Redroot pigweed plant response rating,[1]; [19],0
same,"Plant response rating, Redroot pigweed",[1]; [20],4
same,Redroot pigweed plant response rating,[1]; [21],5
same,Corn plant response rating,[2]; [14],0
same,Corn plant response rating,[2]; [15],0
same,Corn plant response rating (0 to 10 scale),[2]; [16],0
same,Corn plant response rating,[2]; [17],0
same,Corn plant response rating,[2]; [18],0
same,Corn plant response rating,[2]; [19],0
same,"Plant response rating, Corn",[2]; [20],0
same,Corn plant response rating,[2]; [21],0
same,Wild oats plant response rating,[3]; [15],0
same,Wild oats plant response rating (0 to 10 scale),[3]; [16],0
same,Wild oats plant response rating,[3]; [17],3
same,Wild oats plant response rating,[3]; [18],6
same,"Plant response rating, Wild oats",[3]; [20],0
same,Wild oats plant response rating,[3]; [21],0
same,Soybean plant response rating,[4]; [14],2
same,Soybean plant response rating,[4]; [15],0
same,Soybean plant response rating (0 to 10 scale),[4]; [16],0
same,Soybean plant response rating,[4]; [17],0
same,Soybean plant response rating,[4]; [18],0
same,Soybean plant response rating,[4]; [19],2
same,"Plant response rating, Soybean",[4]; [20],4
same,Soybean plant response rating,[4]; [21],4
same,Sugarbeets plant response rating,[5]; [14],2
same,Sugarbeets plant response rating,[5]; [15],0
same,Sugarbeets plant response rating (0 to 10 scale),[5]; [16],0
same,Sugarbeets plant response rating,[5]; [17],0
same,Sugarbeets plant response rating,[5]; [18],0
same,Sugarbeets plant response rating,[5]; [19],0
same,"Plant response rating, Sugarbeets",[5]; [20],4
same,Sugarbeets plant response rating,[5]; [21],7
same,B. signalgrass plant response rating,[6]; [14],0
same,B. signalgrass plant response rating,[6]; [15],0
same,B. signalgrass plant response rating (0 to 10 scale),[6]; [16],0
same,B. signalgrass plant response rating,[6]; [17],5
same,B. signalgrass plant response rating,[6]; [18],5
same,B. signalgrass plant response rating,[6]; [19],0
same,"Plant response rating, B. signalgrass",[6]; [20],2
same,B. signalgrass plant response rating,"[6]; Rate 500 g/ha, Postemergence, scale 0 to 10, 0 no effect, 10 complete control",7
same,Nutsedge plant response rating,[7]; [14],0
same,Nutsedge plant response rating,[7]; [15],0
same,Nutsedge plant response rating (0 to 10 scale),[7]; [16],0
same,Nutsedge plant response rating,[7]; [17],0
same,Nutsedge plant response rating,[7]; [18],0
same,Nutsedge plant response rating,[7]; [19],0
same,"Plant response rating, Nutsedge",[7]; [20],0
same,Nutsedge plant response rating,[7]; [21],0
same,Rape plant response rating,[8]; [14],0
same,Rape plant response rating,[8]; [15],0
same,Rape plant response rating (0 to 10 scale),[8]; [16],0
same,Rape plant response rating,[8]; [17],0
same,Rape plant response rating,[8]; [18],3
same,Rape plant response rating,[8]; [19],0
same,"Plant response rating, Rape",[8]; [20],0
same,Rape plant response rating,[8]; [21],4
same,Morningglory plant response rating,[9]; [14],5
same,Morningglory plant response rating,[9]; [15],0
same,Morningglory plant response rating (0 to 10 scale),[9]; [16],0
same,Morningglory plant response rating,[9]; [17],0
same,Morningglory plant response rating,[9]; [18],0
same,Morningglory plant response rating,[9]; [19],4
same,"Plant response rating, Morningglory",[9]; [20],7
same,Morningglory plant response rating,[9]; [21],10
same,Bedstraw plant response rating,[10]; [14],3
same,Bedstraw plant response rating,[10]; [15],0
same,Bedstraw plant response rating (0 to 10 scale),[10]; [16],0
same,Bedstraw plant response rating,[10]; [17],0
same,Bedstraw plant response rating,[10]; [18],0
same,Bedstraw plant response rating,[10]; [19],0
same,"Plant response rating, Bedstraw",[10]; [20],4
same,Bedstraw plant response rating,[10]; [21],4
same,Velvetleaf plant response rating,[11]; [15],0
same,Velvetleaf plant response rating (0 to 10 scale),[11]; [16],0
same,Velvetleaf plant response rating,[11]; [17],0
same,Velvetleaf plant response rating,[11]; [18],0
same,"Plant response rating, Velvetleaf",[11]; [20],2
same,Velvetleaf plant response rating,[11]; [21],6
same,Cocklebur plant response rating,[12]; [14],0
same,Cocklebur plant response rating,[12]; [15],0
same,Cocklebur plant response rating (0 to 10 scale),[12]; [16],0
same,Cocklebur plant response rating,[12]; [17],0
same,Cocklebur plant response rating,[12]; [18],0
same,Cocklebur plant response rating,[12]; [19],0
same,"Plant response rating, Cocklebur",[12]; [20],0
same,Cocklebur plant response rating,[12]; [21],3
same,Blackgrass plant response rating,[13]; [14],0
same,Blackgrass plant response rating,[13]; [15],3
same,Blackgrass plant response rating,[13]; [17],7
same,Blackgrass plant response rating,[13]; [18],9
same,Blackgrass plant response rating,[13]; [19],0
same,"Plant response rating, Blackgrass",[13]; [20],3
same,Blackgrass plant response rating,[13]; [21],4
